Where two headings read alike, the source gives them in different places.
Columns and labels:
Assay type in all cases: in vivo, human
[1] = Part B multiple-ascending-dose plasma PK in healthy subjects; conditions: for Cmax / Tmax / AUC / clearance / half-life / Vd: human, plasma, iv; for AUC: read-out: AUC0–tau; for Vd: read-out: Vss
Procedure: (§1) This was a 4-part, double-blind, placebo-controlled study (15 cohorts) of DUR administered as a 3-h i.v. infusion (except for cohort 4, in which a 2-h i.v. infusion was evaluated) (see Table S5 in the supplemental material).
(§2) The blank control matrix was made up of human plasma (BioreclamationIVT) diluted 1:1 with SigmaFast (reconstituted protease inhibitor cocktail tablet [product S8820; Sigma-Aldrich, St. Louis, MO] in 10 ml of water) for preparation of calibration standards and QC samples. […] A 100-μl aliquot of the supernatant was transferred to 96-well plates. Samples were diluted further with 400 μl of water, and 5 μl of sample was injected into the LC-MS/MS system for analysis. […] The LLOQ for all analytes was 5 ng/ml.
(§3) AUC was calculated using the log-linear trapezoidal rule.
(§4) Pharmacokinetic parameters were summarized at each assessment time point using the mean ± standard deviation (SD), the percent coefficient of variation (CV), median, minimum, and maximum. Single-ascending-dose study data were assessed for dose proportionality using Cmax and AUC, and accumulation ratios was determined using repeat-dose cohorts. […] Noncompartmental analysis of PK parameters was performed using Phoenix WinNonlin (v6.4) software to determine PK parameters.

[2] = Safety and tolerability (adverse events, laboratory values, vital signs, ECG) in healthy subjects
Procedure: A routine physical examination, determination of vital signs (supine blood pressure, heart rate, respiratory rate, temperature), a 12-lead electrocardiogram (ECG), and clinical laboratory testing (serum chemistry, hematology, urinalysis) were performed at screening, at intervals during the study, and at the 14-day follow-up.
The intent-to-treat (ITT) population included all randomized subjects. The safety population was all randomized subjects who received any study drug.

[3] = Part A single-ascending-dose plasma PK in healthy subjects
Procedure: as §1, §2, §3, §4

[4] = 0.25 g, part B cohort 9, 0.25 g q6h 3-h i.v. infusion, day 1
[5] = 0.25 g, part B cohort 9, 0.25 g q6h 3-h i.v. infusion, day 8
[6] = 0.5 g, part B cohort 10 (4 subjects), 0.5 g q6h 3-h i.v. infusion, day 1
[7] = 0.5 g, part B cohort 10 (4 subjects), 0.5 g q6h 3-h i.v. infusion, day 8
[8] = 1 g, part B cohort 11 (5 subjects), 1.0 g q6h 3-h i.v. infusion, day 1
[9] = 1 g, part B cohort 11 (5 subjects), 1.0 g q6h 3-h i.v. infusion, day 8
[10] = 2 g, part B cohort 12, 2.0 g q6h 3-h i.v. infusion, day 1
[11] = 2 g, part B cohort 12, 2.0 g q6h 3-h i.v. infusion, day 8
[12] = part B cohort 9, 0.25 g q6h 3-h i.v. infusion, day 8
[13] = part B cohort 10 (4 subjects), 0.5 g q6h 3-h i.v. infusion, day 8
[14] = part B cohort 11 (5 subjects), 1.0 g q6h 3-h i.v. infusion, day 8
[15] = part B cohort 12, 2.0 g q6h 3-h i.v. infusion, day 8
[16] = all subjects receiving the treatment
[17] = cohort of elderly subjects, DUR 1 g

CC1=C[C@@H]2CN(C(=O)N2OS(=O)(=O)O)[C@@H]1C(N)=O [DUR, Durlobactam]
Cmax [1, 4]: 6900 ± 1400 ng/mL
Tmax ([1]; 0.25 g, part B cohort 9, 0.25 g q6h 3-h i.v. infusion, day 1, median): 3 h
AUC [1, 4]: 23100 ± 4900 ng·h/mL
Cmax [1, 5]: 7500 ± 1300 ng/mL
Tmax ([1]; 0.25 g, part B cohort 9, 0.25 g q6h 3-h i.v. infusion, day 8, median): 2.5 h
AUC [1, 5]: 26200 ± 5200 ng·h/mL
Cmax [1, 6]: 14900 ± 2200 ng/mL
Tmax ([1]; 0.5 g, part B cohort 10 (4 subjects), 0.5 g q6h 3-h i.v. infusion, day 1, median): 3 h
AUC [1, 6]: 50300 ± 9000 ng·h/mL
Cmax [1, 7]: 14800 ± 1100 ng/mL
Tmax ([1]; 0.5 g, part B cohort 10 (4 subjects), 0.5 g q6h 3-h i.v. infusion, day 8, median): 3 h
AUC [1, 7]: 53400 ± 4800 ng·h/mL
Cmax [1, 8]: 26900 ± 13100 ng/mL
Tmax ([1]; 1 g, part B cohort 11 (5 subjects), 1.0 g q6h 3-h i.v. infusion, day 1, median): 2.5 h
AUC [1, 8]: 79800 ± 35900 ng·h/mL
Cmax [1, 9]: 33400 ± 6000 ng/mL
Tmax ([1]; 1 g, part B cohort 11 (5 subjects), 1.0 g q6h 3-h i.v. infusion, day 8, median): 3 h
AUC [1, 9]: 109000 ± 13900 ng·h/mL
Cmax [1, 10]: 51900 ± 8000 ng/mL
Tmax ([1]; 2 g, part B cohort 12, 2.0 g q6h 3-h i.v. infusion, day 1, median): 3 h
AUC [1, 10]: 179000 ± 29900 ng·h/mL
Cmax [1, 11]: 53300 ± 7800 ng/mL
Tmax ([1]; 2 g, part B cohort 12, 2.0 g q6h 3-h i.v. infusion, day 8, median): 3 h
AUC [1, 11]: 193000 ± 31200 ng·h/mL
clearance [1, 12]: 163 mL/min
half-life [1, 12]: 1.9 ± 0.4 h
Vd [1, 12]: 18.5 ± 2.9 L
clearance [1, 13]: 157 mL/min
half-life [1, 13]: 2.6 ± 0.1 h
Vd [1, 13]: 18.1 ± 1.8 L
clearance [1, 14]: 155 mL/min
half-life [1, 14]: 3.5 ± 0.9 h
Vd [1, 14]: 17.2 ± 2 L
clearance [1, 15]: 177 mL/min
half-life [1, 15]: 10.1 ± 2.9 h
Vd [1, 15]: 21.8 ± 2 L
Accum. index [1, 12]: 1.1 ± 0.07
Accum. index [1, 13]: 1.3 ± 0.01
Accum. index [1, 14]: 1.5 ± 0.18
Accum. index [1, 15]: 3.0 ± 0.69
drug-related AE: catheter site phlebitis ([2]; DUR group, all subjects): 5.3%
drug-related AE: headache ([2]; DUR group, all subjects): 10.6%
treatment-emergent AE: catheter site phlebitis ([2]; DUR group, all subjects): 8.5%
treatment-emergent AE: headache ([2]; DUR group, all subjects): 13.8%
Drug-related AE: Abdominal pain [2, 16]: 0 No. (%) of subjects
Drug-related AE: Dizziness [2, 16]: 4 (4.3) No. (%) of subjects
Drug-related AE: Dysgeusia [2, 16]: 2 (2.1) No. (%) of subjects
Drug-related AE: Nasal congestion [2, 16]: 2 (2.1) No. (%) of subjects
Drug-related AE: Nausea [2, 16]: 2 (2.1) No. (%) of subjects
Drug-related AE: Pain in extremity [2, 16]: 1 (1.1) No. (%) of subjects
Drug-related AE: Phlebitis [2, 16]: 2 (2.1) No. (%) of subjects
Drug-related AE: Polydipsia [2, 16]: 0 No. (%) of subjects
Drug-related AE: Pruritus [2, 16]: 2 (2.1) No. (%) of subjects
Drug-related AE: Somnolence [2, 16]: 1 (1.1) No. (%) of subjects
Drug-related AE: Upper respiratory infection [2, 16]: 1 (1.1) No. (%) of subjects
Drug-related AE: Vulvovaginal candidiasis [2, 16]: 2 (2.1) No. (%) of subjects
drug-related AE: catheter site phlebitis [2, 16]: 5 (5.3) No. (%) of subjects
drug-related AE: headache [2, 16]: 10 (10.6) No. (%) of subjects
overall safety and tolerability ([2]; alone or with SUL and/or IMI-CIL): generally safe and well tolerated
changes in clinical laboratory values, vital signs, or ECG findings ([2]; any subject): No clinically significant changes
increase in Cmax with 2-h infusion compared with 3-h infusion ([3]; cohort 4, DUR 1 g): approximately 50%
increase in AUC in elderly subjects compared with younger subjects ([3]; cohort 8, DUR 1 g): 2 fold
increase in Cmax in elderly subjects compared with younger subjects ([3]; cohort 8, DUR 1 g): 1.8 fold
increase in exposure in elderly subjects [3, 17]: 100%
reduction of renal clearance in elderly subjects [3, 17]: approximately 50%

Reference: paper PMC7318034, “Safety, Pharmacokinetics, and Drug-Drug Interaction Potential of Intravenous Durlobactam, a β-Lactamase Inhibitor, in Healthy Subjects” (Antimicrobial Agents and Chemotherapy, 2020)
